Test: xn = mol fraction of the nth substance listed
Details: 100 kPa

OCCO + O=S(=O)([N-]S(=O)(=O)C(F)(F)F)C(F)(F)F.[Li+]
x2 = 0
Details	viscosity [mPa·s]
303 K	13.53
318.1 K	9.59
333 K	7.47

O=S(=O)([N-]S(=O)(=O)C(F)(F)F)C(F)(F)F.[Li+] + OCCO
Details	electrical conductivity, 303 K [S/m]	electrical conductivity, 318.1 K [S/m]	electrical conductivity, 333 K [S/m]	viscosity, 303 K [mPa·s]	viscosity, 318.1 K [mPa·s]	viscosity, 333 K [mPa·s]
x1 = 0.143	0.129	0.296	0.516	18.14	12.79	8.55
x1 = 0.167	0.275	0.604	0.928	19.25	13.57	8.71
x1 = 0.2	0.305	0.738	1.2	21.4	14.53	10.21
x1 = 0.25	0.291	0.623	1.07	23.79	16.35	10.61
x1 = 0.333	0.281	0.559	0.88	30.24	18.69	11.02
x1 = 0.5	0.275	0.534	–	58.8	35.26	–

From a compilation of properties of binary mixtures (doi:10.1016/j.molliq.2020.114495)
